Columns and labels:
[1] = tested on: PC12 cells; assay: Aβ1-40 cytotoxicity on PC12 cells, MTT assay; format: cell-based; details: for elevation of viability rate of PC12 cells compared with control: 5 μM Aβ1-40, MTT after 24 hours; for inhibitory effect on Aβ1-40 cytotoxicity: both assays (T=0 and after 7 days incubation)
Protocol: Cell culture: PC12 pheochromocytoma cell line, a cultured benign tumor of the sympathetic nervous system, was routinely grown in Dulbecco's Modified Eagle Medium (DMEM) supplemented with 8% (v/v) fetal calf serum, 8% (v/v) horse serum, 100 U/ml penicillin, 100 U/ml streptomycin, and 2 mM L-glutamine (Biological industries, Israel). The cells were maintained at 37° C. in a humidified atmosphere containing 5% CO2. Cell cytotoxicity assay: PC-12 cells (3×10^5 cells/ml) were cultured in 96-well microplates (100 μl/well) and were incubated overnight at 37° C. The wells were then washed once with serum free-DMEM, so as to exclude the effect of the serum. To each well 100 μl of 5 μM Aβ1-40 (prepared from a stock solution of 0.5 mM in 10 mM NaOH) and an indole derivative at various concentrations were added. Each determination was made in quadruplicate. Following incubation for 24 hours at 37° C., cell viability was evaluated using the MTT assay (as described in Hansen et al. (1989) J. Immunol. Methods 119, 203-210). The effect of the indole derivatives on the formation of cytotoxic amyloid assemblies was determined by measuring the toxicity of the formed Aβ on pheochromocytoma cell line cultures (PC12) in the presence and absence of the indole derivatives. […] Cell viability was determined after 24 hours using the MTT assay. Cells incubated with only 5 μM Aβ1-40 served as the control.

[2] = target: T1, Aβ1-40 (Homo sapiens, UniProt P05067); assay: Kinetics of Aβ1-40 fibrillogenesis inhibition, ThT fluorescence assay; format: biochemical
T1 construct: Synthetic lyophilized β-amyloid polypeptides (Aβ 1-40 and Aβ 1-42, >98% pure); purchased Bachem (Bubendorf, Switzerland); host or cells: chemical synthesis
T1 sequence (P05067 672-711 limits assumed): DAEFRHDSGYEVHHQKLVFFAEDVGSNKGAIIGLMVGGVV
Protocol: (§1) Aβ solutions: Synthetic lyophilized β-amyloid polypeptides (Aβ 1-40 and Aβ 1-42, >98% pure) were purchased from Bachem (Bubendorf, Switzerland). A 100 μM Aβ stock solution was prepared by dissolving Aβ1-40 or Aβ1-42 in dimethylsulfoxide (DMSO) and sonicating the resulting solution during 1 minute to avoid pre-aggregation. Aβ solutions were prepared by immediate dilution with 10 mM phosphate-buffered saline (100 mM NaCl, 0.5 mM EDTA, pH 7.4) to a final concentration of 10 μM (containing 10% (v/v) DMSO).
(§2) Indole derivatives stock solutions were prepared by dissolving an indole derivative in DMSO, so as to achieve a concentration of 20 mM and then diluting the solution with 10 mM PBS buffer (100 mM NaCl, 0.5 mM EDTA, pH 7.4) to a final concentration of 100 μM (containing 0.5% (v/v) DMSO).
(§3) Thioflavin T fluorescence assay: Fibrillization of A[…] 1-42 polypeptide was monitored using a Thioflavin T (ThT) dye binding assay. A 10 μM Aβ solution (either Aβ1-40 or Aβ1-42) was prepared as described above and was immediately mixed with the indole derivative stock solutions (100 μM), so as to achieve a final concentration of 5 μM for Aβ and various concentrations of the indole derivative. For each measurement, ThT was added to a 0.1 ml sample, to give a final concentration of 0.3 μM ThT and 0.4 μM Aβ. The samples were incubated at 37° C. Fluorescence measurements, made after addition of the ThT solution to each sample at 37° C., were carried out using a Jobin Yvon FluoroMax-3 spectrometer (excitation 450 nm, 2.5 nm slit; emission 480 nm, 5 nm slit, integration time of 1 second). Background was subtracted from each sample. Each experiment was repeated in quadruplicate.
Kinetics Studies of Aβ1-40 Fibrillogenesis Inhibition: Aβ1-40, which has a slower fibrillogenesis rate [see, Jarrett et al. (1993) Biochemistry 32, 4693-4697] was used in these studies, in order to obtain better temporal resolution, assuming that a slower rate would allow more significant inhibition and a better understanding of the effect. 3-Hydroxyindole (denoted as 3HI), 4-hydroxyindole (denoted as 4HI) and indole-3-carbinol (denoted herein as I3C) were each added at concentrations of 5 μM, 25 μM, and 50 μM to a solution containing 5 μM of Aβ1-40 (prepared as described above) and the kinetics of Aβ1-40 fibrillogenesis inhibition was measured using the ThT fluorescence assay.

[3] = target: T1, Aβ1-40; assay: TEM ultrastructural analysis of Aβ1-40 samples from kinetic studies
Protocol: Transmission Electron microscopy (TEM): A 10 μl sample of the ThT fluorescence assay was placed on a 400 mesh copper grid covered by carbon-stabilized Formvar film (SPI Supplies, West Chester, Pa.). After 1.5 minutes, excess fluid was removed and the grids were negatively stained for 2 minutes with 10 μl of 2% uranyl acetate solution. Excess fluid was removed and the samples were viewed using a JEOL 1200EX electron microscope operating at 80 kV. Ultrastructural Analysis of amyloid fibril formation: The effect of the indole derivatives on the ultrastructural properties of the assembled Aβ was first evaluated by TEM measurements. Thus, TEM analysis was performed with samples of Aβ1-40 obtained from the kinetic studies described above after incubation for 14 days.

[4] = target: T2, Aβ 1-42 (Homo sapiens, UniProt P05067); assay: Thioflavin T fluorescence assay of Aβ 1-42 fibrillization (Example 2); format: biochemical; details: for inhibition of β-amyloid polypeptide fibril formation: 50 μM compound, 5 μM Aβ 1-42, 24 hours at 37° C.; for concentration dependence of inhibition of fibril formation: Aβ1-42, fixed incubation time of 24 hours; for IC50: Aβ1-42 fibrillization, 24 hours, calculated by the curve equation, read-out: apparent IC50
T2 construct: Aβ 1-40 and Aβ 1-42, >98% pure) were purchased from Bachem; purchased Bachem (Bubendorf, Switzerland); host or cells: chemical synthesis
T2 sequence (P05067 672-713 limits assumed): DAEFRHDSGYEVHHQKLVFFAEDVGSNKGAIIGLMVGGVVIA
Protocol: as §1, §2, §3
Inhibition of amyloid formation: The level of amyloid formation was detected using the above described Thioflavin T (ThT) dye binding assay. Fluorescence (relative intensity, measured in units of percent) of the ThT bound Aβ 1-42 remaining following 24 hours at 37° C., in the absence, and in the presence of 50 μM indole or indole derivative, was measured. Each measurement was recorded immediately after the fluorescence intensity reached a maximum value. The results obtained with representative indole derivatives, each representing a mean of four independent measurements along with an associated error bar representing a standard error, are graphically presented in FIG. 4.
Concentration Dependence of Indole Derivatives inhibition activity: To examine the inhibition efficiency of the indole derivatives, the concentration dependence of inhibition of fibril formation was studied. The fibrillization of Aβ1-42, with and without an indole derivative was measured using the ThT fluorescence assay described above at a fixed incubation time of 24 hours.

[5] = target: T1, Aβ1-40; assay: AFM structural analysis of Aβ1-40 samples from kinetic studies; details: 50 μM compound, once control samples reached the polymerization phase
Protocol: Atomic force microscopy (AFM): For each experiment, a 60 μl sample of was taken for AFM measurement at three different time points correlating to the amyloidogenic kinetic curve, as detailed hereinafter. The sample was centrifuged for 1.5 minutes at 13,000 rpm and 40 μl of the supernatant was removed. The remaining 20 μl droplet of the solution was re-suspended and deposited onto freshly cleaved mica for 1.5 minutes. The substrate was washed with 160 μl of double-distilled H2O to reduce background and to eliminate salts and buffer contaminants. The mica samples were then dried at room temperature. At least four regions of the mica surface were examined to ensure that similar structures existed throughout the sample. AFM images were obtained using a Veeco NanoScope IV MultiMode AFM (Digital Instruments, Santa Barbara, USA) in tapping mode. Measurements were performed at a resonance frequency of about 321.4 kHz.
Additional structural analyses were performed using AFM measurements, performed with Aβ1-40 samples taken from the kinetic studies once the control samples reached the different fibrillogenesis phase.

[6] = 5 μM, 25 μM and 50 μM tested, 5 μM Aβ1-40

SMILES: Oc1cccc2[nH]ccc12 [4-hydroxyindole]
- protective effect, concentration dependence ([1]; 0.5 μM to 50 μM, 5 μM Aβ1-40, solution incubated 7 days): dose-dependent
- minimum concentration required for significant inhibition ([1]; 5 μM Aβ1-40, solution incubated 7 days): 2.5 µM
- elevation of viability rate of PC12 cells compared with control ([1]; 25 μM compound): about 25%
- elevation of viability rate of PC12 cells compared with control ([1]; 50 μM compound): about 25%
- toxic effect of Aβ1-40 ([1]; 50 μM compound, 5 μM Aβ1-40, solution incubated 7 days): completely blocked
- inhibitory effect on Aβ1-40 cytotoxicity [1]: most significant inhibitory effect
- effect on nucleation phase (lag phase) ([2]; 5 μM compound, 5 μM Aβ1-40): less significant
- slope of growth curve (polymerization phase) ([2]; 5 μM compound, 5 μM Aβ1-40): the most sharp
- inhibition at 5 µM ([2]; 5 μM compound, 5 μM Aβ1-40, endpoint of experiment, read-out: inhibition level at final equilibrium phase): ~60%
- effect on nucleation phase (lag phase) ([2]; 25 μM compound, 5 μM Aβ1-40): significantly longer nucleation phase
- inhibition level at final equilibrium phase ([2]; 25 μM compound, 5 μM Aβ1-40, endpoint of experiment): almost complete
- effect on nucleation phase (lag phase) ([2]; 50 μM compound, 5 μM Aβ1-40): significantly longer nucleation phase
- inhibition level at final equilibrium phase ([2]; 50 μM compound, 5 μM Aβ1-40, endpoint of experiment): almost complete
- inhibition level at final equilibrium phase, comparison among compounds ([2]; all the tested concentrations): highest inhibition level
- fibril ultrastructure by TEM ([3]; 5 μM or more of compound): no amyloid fibrils
- fibril ultrastructure by TEM ([3]; 25 μM compound, 14 days incubation): devoid of fibrils and contained only a minor amount of small fibrils
- inhibition of β-amyloid polypeptide fibril formation [4]: significantly inhibited
- concentration dependence of inhibition of fibril formation [4]: dose-dependent inhibition pattern
- IC50 [4]: ~85 µM
- amyloid fibril formation by AFM [5]: no fibrils

SMILES: Oc1ccc2[nH]ccc2c1 [5-hydroxyindole]
- inhibition of β-amyloid polypeptide fibril formation [4]: significantly reduced inhibition

SMILES: Oc1cc2ccccc2[nH]1 [2-hydroxyindole]
- inhibition of β-amyloid polypeptide fibril formation [4]: significantly reduced inhibition

SMILES: Oc1c[nH]c2ccccc12 [3-hydroxyindole]
- inhibitory effect on Aβ1-40 cytotoxicity [1]: no anti-cyclotoxic effect
- improvement of PC12 survival rate compared with control ([1]; only at T=0 (solution added immediately), 5 μM Aβ1-40): about 25%
- effect on nucleation phase (lag phase) compared with control [2, 6]: no effect on the nucleation phase
- effect on slope of growth curve (polymerization phase) [2, 6]: dose-dependent effect
- inhibition at 25 µM ([2]; 25 μM compound, 5 μM Aβ1-40, endpoint of experiment, read-out: inhibition level at final equilibrium phase): ~40%
- inhibition at 50 µM ([2]; 50 μM compound, 5 μM Aβ1-40, endpoint of experiment, read-out: inhibition level at final equilibrium phase): ~60%
- fibril ultrastructure by TEM ([3]; 50 μM compound, 14 days incubation): significant number of amorphous aggregates showing a congested form
- inhibition of β-amyloid polypeptide fibril formation [4]: significantly inhibited
- concentration dependence of inhibition of fibril formation [4]: dose-dependent inhibition pattern
- IC50 [4]: ~100 µM
- amyloid fibril formation by AFM [5]: small aggregates that interacted with the amyloid fibrils

Reference: patent US8889729B2, “Compositions for treating amyloid associated diseases” (Tel Aviv University Future Technology Development L.P., priority 2004, dated 2014)
